Consider 2 compounds from patent publication US11524048B2, “HMGB1 antagonist treatment of severe sepsis” (THE FEINSTEIN INSTITUTES FOR MEDICAL RESEARCH, priority 2019, dated 2022).

Several values for one entry are separate records, joined by “and”; a condition that tells them apart may be missing. Identical values can stand only once. Entries after “also recorded” stand apart in the source; their conditions may differ. Like-named read-outs stand apart in the source and are kept apart here.

The test system of data set [1] is CCI-induced neuropathic pain. Description: Chronic constriction injury (CCI) of the sciatic nerve neuropathic pain model in rats. It is filed as in vivo, male Wistar rats. The procedure:
Twenty-four male Wistar rats were separated into four groups (n=6/group) for treatment as follows [please give details concerning each of the four groups regarding procedure and treatment:
The CCI rats each received surgery. […] Mechanical and thermal sensitivity tests were also performed over time. Hargreaves Thermal Hypersensitivity test was administered to the rats as well as Von Frey mechanical hypersensitivity test.
Rats (male Wistar, 150-180 gm, n=6/group) had CCI surgery. […] Two weeks after surgery, thermal (Hargreaves) or mechanical (von Frey) hypersensitivity was assessed. *: P<0.05 vs. PBS group.
In this experiment, male Wistar rats (n=6/group) had CCI surgery. […] Mechanical allodynia was assessed 5 hours later. N=6-8 rats/group. *: p<0.05) vs. HMGB1 alone. Mechanical and thermal sensitivity tests were also performed over time.

The test system of a further data set is rats. Description: Single-dose tolerability in rats. The following applies: single-dose studies with rats. Type of data set: in vivo.
For another data set, the system named is STZ-induced diabetes. Description: STZ-induced diabetes in mice. It is filed as in vivo. The following applies: repetitive K883 500 μg/mouse, vs PBS. The procedure: Mice were administered repetitive administration of […] (500 μg/mouse). […] Repetitive administration of […] was therefore shown to be beneficial in STZ-induced diabetes. […] (*: P<0.05 vs. PBS group. N=6-8 mice per group).

The subject of data set [2] is APAP-induced liver injury. Description: APAP-induced liver injury model in mice. It is filed as in vivo, male C57BL/6 mice.
The subject of data set [3] is DAMP-induced TNF secretion (CIRP, SAA, PEDF, HSP 70, HSP90, H2A), human primary macrophages. Description: DAMPs-induced TNF secretion in human macrophages. Type of data set: cell-based. To be noted: 16 hours.
Data set [4] is described as follows: Pharmacokinetics after intravenous administration to rats (LC-MS).
For data set [5], the system named is liver ischemia and reperfusion injury. Description: Warm liver ischemia and reperfusion (I/R) in mice. Type of data set: in vivo, male C57BL/6 mice.
The conditions of data set [6]: up to 6 hours, versus P5779.
The subject of data set [7] is HMGB1-induced TNF release, human primary macrophages. To be noted: Yang 2015; cited from earlier work.
The subject of data set [8] is liver ischemia and reperfusion injury. The following applies: cited from earlier work.
Data set [9] concerns APAP-induced liver injury. To be noted: cited from earlier work.
For data set [10], the system named is PAMP-induced TNF release (LPS, PGN, AGE, Poly I:C), human macrophages. The following applies: Yang 2015; cited from earlier work.
For data set [11] the following is noted: rat, in vivo.

For the compound `NC(=O)N(CCC(=O)O)NC(=O)[C@H](CO)NC(=O)[C@H](CO)NC(=O)N(N)Cc1ccccc1` [K883], the “CCI-induced CXCL1 and TNF expression (DRGs)” value in [1] (DRGs) is “reduces CCI-induced CXCL1 and TNF expression”. Moreover, in [1] (Hargreaves / von Frey, K883 800 μg/rat IP once a day for 3 days), the “CCI-induced thermal and/or mechanical hypersensitivity (neuropathy)” value is “improved CCI-induced thermal and mechanical hypersensitivity; also recorded: effectively reduces peripheral neuropathy; also recorded: ameliorated both mechanical and thermal hypersensitivity; also recorded: ameliorated the thermal hypersensitivity”. Also, the “CCI-induced CXCL1, TNF and IL-1β expression (spine)” value in [1] (spine) is “reduces CCI-induced CXCL1, TNF and IL-1β expression”. Moreover, in the data set on rats, the tolerability result is “well-tolerated”. Besides, in the data set with STZ-induced diabetes, the hyperglycemia result is recorded as “delays hyperglycemia”, the insulitis entry is given as “reduces insulitis” and the weight gain result is on record as “improves weight gain”. The “serum ALT” value in data set [2] (50 ug/mouse, vs vehicle controls) is “reduced serum ALT”. In data set [2] (APAP 350 mg/kg IP, K883 50 μg/mouse IP at 2 and 7 hours post-APAP, 24 hours), the “liver necrosis / liver injury (H&E histology)” value is “reduces APAP-induced liver injury; also recorded: reduced liver necrosis”. Further, the “mice surviving the toxicity of APAP” value in data set [2] (APAP 400 mg/kg, 50 μg/mouse IP once-a-day for 5 days from 2 hours post-APAP, 2 weeks, control group 8) is 14 mice out of 15. The “percent survival post-APAP” value in [2] (APAP 400 mg/kg, K883 50 μg/mouse IP once-a-day 5 days, 2 weeks) is given as “improved survival outcome; also recorded: significant improvement”. Also, in [3], the “TNF secretion induced by other DAMPs” value is “is not inhibited”. Besides, the AUCss in data set [4] (IV 1 mg/kg, individual rats, 1 mg/kg) is 3776 ng·h/mL and 3808 ng·h/mL and 3751 ng·h/mL. Besides, the “AUCss, Mean” value in data set [4] (IV 1 mg/kg, mean of 3 rats) worked out at 3778 ng·h/mL. In addition, in data set [4] (rat, in vivo), the “half-life in serum (FIG. 23)” value is recorded as “longer half-life in serum”. In data set [5] (K883, 6 hours after reperfusion, vs vehicle control), the “liver H&E staining: inflammation (neutrophil infiltration)” value is given as “reduced inflammation”. The “protection against hepatic ischemia/reperfusion injury” value in data set [5] (mice) is “protected mice against hepatic ischemia/reperfusion injury”. For the same compound, the “structural stability in mouse serum” value in data set [6] is “retains structural stability for a longer period of time”.
As to `NC(=O)[C@H](CCC(=O)O)NC(=O)[C@H](CO)NC(=O)[C@H](CO)NC(=O)[C@@H](N)Cc1ccccc1` [P5779], the “HMGB1-induced TNF release from macrophages” value in [7] is reported as “inhibit HMGB1-induced TNF release from macrophages in a concentration-dependent manner”. Moreover, the “serum levels of ALT and AST / tissue damage” value in [8] (P5779 500 μg/mouse IP at time of I/R surgery, 6 hours) was “reduced”. For the same compound, the “liver H&E staining: inflammation (neutrophil infiltration)” value in [8] (P5779, 6 hours after reperfusion, vs vehicle) is on record as “reduced inflammation”. Moreover, the “liver necrosis / liver injury (H&E histology)” value in [9] (APAP 350 mg/kg, P5779 50 or 500 μg/mouse IP at 2 and 7 hours, vs scrambled control peptide) is recorded as “reduced APAP-mediated liver injury; also recorded: reduced liver necrosis”. In addition, the “percent survival post-APAP” value in [9] (APAP 400 mg/kg, P5779 500 μg/mouse IP once a day 5 days, 2 weeks, vs scrambled control peptide) is “increased survival; also recorded: significantly improved”. The “serum ALT” value in data set [9] (P5779 500 ugs/mouse, comparative data) was “significant reductions in ALT”. The “TNF release in macrophages stimulated by LPS, PGN, Poly I:C, CpG DNA or S100 A12” value in data set [10] is given as “not suppress TNF release”. Further, the “half-life in serum (FIG. 23)” value in data set [11] was “undetectable”.
